{"source": "patent US20170312305A1", "about": "“PHARMACEUTICAL EXTRACTS AND USES THEREOF” (UNIVERSITY OF SALFORD ENTERPRISES LIMITED, priority 2014, published 2017)", "key": {"[1]": {"tested_on": "MDA-468 cells", "assay": "MTT cell viability assay, MDA-468 breast cancer cells", "format": "cell-based", "conditions": "MDA-468, 96 hours, cisplatinum 1-25 μM", "procedure": "(§1) The breast cancer cell MDA 468 and MDANQ01, K562 and human lymphoblastic cell line (MOLT-4) were grown in RPMI 1640 medium supplemented with 1% L-glutamine, 1% of 100 Units/ml penicillin and 0.1 mg/ml streptomycin and 10% inactivated FCS. While the […] cell line HeLa and fibroblast cell line 3T3 were grown in DMEM medium supplemented with 20% inactivated FCS, 1% L-glutamine, 1% of 100 units/ml penicillin & 0.1 mg/ml streptomycin. All cell lines were maintained in a humidified incubator with an atmosphere of 95% air and 5% CO2 at 37° C.\n(§2) Cell viability was determined by the MTT (3-(4,5 dimethylthiazol2-yl)-2,5 diphenyltetrazolium bromide) test method. […] The metabolic activity of each well was determined by the (MTT) assay and compared to those of untreated cells. […] Cell viability was determined based on mitochondrial conversion of 3[4,5-dimethylthiazol-2-yl] […] The plates were gently agitated until the colour reaction was uniform and the absorbance was measured at 570 nm using a multi-well plate reader, Sigma Plot 2000 software was used for data analysis. The cell viability effects from exposure of cells to each concentration of crude whelk GAGs, commercial GAGs and cisplatinum were analysed as percentages of the control cell absorbance, which were obtained from control wells plated in RPMI, 1% L-glutamate and 10% FCS media. […]"}, "[2]": {"tested_on": "MDANQ01 cells", "assay": "MTT cell viability assay, MDANQ01 breast cancer cells", "format": "cell-based", "conditions": "MDANQ01, 96 hours, cisplatinum 1-25 μM", "procedure": "as §1, §2"}}, "data": [{"smiles": "N.N.[Cl][Pt][Cl]", "note": "[cisplatinum]", "values": [{"measurement": "IC50", "setting": "[1]", "result": 880, "unit": "nM"}, {"measurement": "IC50", "setting": "[2]", "result": 630, "unit": "nM"}]}]}
